Experiment in all cases: NCI-60 cell line screen, 48 h
Assay [1] relates to COLO 205 colon.
Assay [2] relates to HL-60(TB) leukemia.
For assay [3], the system named is MOLT-4 leukemia.
The test system of assay [4] is NCI-H522 lung.
The subject of assay [5] is NCI/ADR-RES ovarian.
Assay [6] concerns OVCAR-3 ovarian.
For assay [7], the system named is OVCAR-4 ovarian.
For assay [8], the system named is PC-3 prostate.
Assay [9] relates to SF-268 CNS.
Assay [10] has as its system SK-OV-3 ovarian.

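In this assay, cells in 96-well plates receive the compound at five concentrations for 48 hours. Endpoints are linearly interpolated between the surrounding concentrations. Here, GI50 denotes the concentration required for 50% inhibition of growth. At the TGI there is no net growth.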

With `CCN(CC)CCCCNc1c2ccc(Cl)cc2nc2ccc(OC)cc12`, the GI50 in assay [1] is 0.24 µM; in assay [2] it was 1.03 µM; in [3] it was 0.306 µM; in assay [4], 0.397 µM; in assay [5], 0.645 µM; in assay [6], 0.501 µM. Moreover, the GI50 in assay [7] was 0.364 µM; in assay [8] it was 0.482 µM; in [9], 0.797 µM; in assay [10] it was 0.637 µM. For the same compound, the TGI amounted to 1.32 µM in [1]; 3.2 µM in [2]; 2.79 µM in [3]; 2.66 µM in assay [4]; 3.95 µM in [5]; 2.99 µM in [6]. In addition, the TGI in assay [7] was 2.44 µM; in assay [8] it was 2.74 µM; in [9], 3.33 µM; in [10], 3.46 µM.

For the compound `CC(C)=CCc1c(O)cc2oc(-c3ccc(O)cc3O)cc(=O)c2c1O`, the TGI in assay [1] is 62.6 µM; in assay [2], 51 µM; in assay [4], 53.6 µM; in [5] it was greater than 94.4 µM; in assay [6] it was 51.5 µM; in assay [7] it was 50.8 µM. The figures for the TGI in assay [8], in assay [9] and in assay [10] were 98.2 µM, greater than 100 µM and greater than 100 µM, respectively.

Regarding `CCN(CC)C(=S)N/N=C(/c1ccccc1)c1ccccn1`, the TGI in [1] is 0.0942 µM; in assay [2] it was 1.59 µM; in assay [3], greater than 100 µM; in assay [4], greater than 100 µM; in [5] it was 14.3 µM; in [6], 32.5 µM. Also, the TGI in assay [7] was 23.8 µM; in [8] it was greater than 100 µM; in [10], 38.6 µM.

Consider `Cn1c(=O)cc(NNc2ccc(Cl)c(Cl)c2)[nH]c1=O`, for which the TGI in [1] was 35.8 µM; in [2], 91 µM; in [3], 58.2 µM; in assay [5], 64.1 µM; in assay [6], 28.8 µM; in [7] it was 28.3 µM. The results for the TGI in assay [8], in assay [9] and in assay [10] were 25.4 µM, 75.9 µM and greater than 100 µM, respectively.

Consider `O=C(C(=C(I)I)c1ccccc1)c1ccccc1`, for which the TGI was greater than 100 µM in [1]; 52.3 µM in assay [2]; 58.1 µM in assay [3]; greater than 100 µM in assay [5]; 42.3 µM in assay [6]; greater than 100 µM in [7]. Also, the TGI in [8], in assay [9] and in assay [10] was greater than 100 µM in each case.

Consider `Clc1ccc(/C(=C/c2ccccc2)Cn2ccnc2)cc1`, for which the TGI is 38.5 µM in [1]; 46.3 µM in [2]; greater than 100 µM in assay [3]; 57.6 µM in assay [4]; 66.6 µM in assay [5]; greater than 100 µM in assay [7]. Also, the figures for the TGI in [8], in assay [9] and in [10] were 94 µM, greater than 100 µM and greater than 100 µM, respectively.

For `CCC1(CC)C(=O)N(C(=O)c2cc(OC)c(OC)c(OC)c2)N(C(=O)c2cc(OC)c(OC)c(OC)c2)C1=O`, the TGI in assay [1], in assay [2], in [4], in [5], in [6] and in [7] was greater than 50 µM each time. Besides, the TGI in assay [8], in [9] and in [10] was greater than 50 µM in each case.

Take `CSc1ccc(/C=C2\N=C(c3ccccc3)N(c3nc4cc(Cl)c(F)cc4s3)C2=O)cc1`: the TGI was greater than 100 µM in [1]; greater than 100 µM in assay [2]; greater than 100 µM in assay [3]; 99.1 µM in assay [5]; 60.1 µM in assay [6]; 82.7 µM in assay [7]. For the same compound, the TGI in [8], in assay [9] and in [10] was greater than 100 µM each time.

`CC(C)(C)/C(O)=C\c1nc2cc(F)c(F)cc2[nH]c1=O`: the TGI in assay [1], in assay [2], in [3], in [5], in assay [7] and in assay [8] was greater than 100 µM in each case. Also, the TGI in assay [9] and in [10] was greater than 100 µM throughout.

Regarding `CSc1nc(=O)c2nc(-c3cccs3)c(-c3cccs3)nc2n1C`, the TGI is greater than 100 µM in [1]; greater than 100 µM in assay [2]; greater than 100 µM in assay [3]; 89.1 µM in [4]; greater than 100 µM in assay [5]; greater than 100 µM in assay [7]. In addition, the TGI in [8], in assay [9] and in assay [10] was greater than 100 µM throughout.

In the case of `N#Cc1c(-c2ccc([N+](=O)[O-])cc2)c(C#N)c(=O)n(NS(=O)(=O)c2ccccc2)c1O`, the TGI in [1], in [2], in assay [3], in [4], in [5] and in assay [6] was greater than 100 µM in each case. Moreover, the TGI in [7], in assay [8] and in [10] was greater than 100 µM each time.

Regarding `O=C1CC[C@@]23CC(=O)O[C@@H]2CCCC3C1` (some centres not stated), the TGI in assay [1], in [2], in assay [3], in assay [4], in assay [5] and in assay [7] was greater than 100 µM throughout. For the same compound, the TGI in assay [8], in assay [9] and in assay [10] was greater than 100 µM throughout.

For the compound `C=C1[C@@H]2CCC3[C@]4(C)C(CC[C@@]5(C)C(=O)O[C@H](O)[C@@H]45)[C@H](O)[C@]3(C2)[C@H]1OC1OC(CO)C(O)C(O)C1O` (some centres not stated), the TGI in assay [1], in assay [2], in assay [3], in assay [5], in [6] and in assay [7] was greater than 50 µM throughout. The TGI in [8], in assay [9] and in assay [10] was greater than 50 µM throughout.

(Values after PubChem BioAssay (NCI).)
